As a reminder, the EC50 is the concentration that produces a half-maximal response.

Experimental findings from patent US8653127B2, “Bicyclic pyrazolo-heterocycles” (Cara Therapeutics, Inc., priority 2009, dated 2014) are described below.

Assay [1] deals with human CB2 receptor (hCB2) (Homo sapiens, UniProt P34972). The assay can be described thus: cAMP assay, agonist/inverse agonist activity at human CB2 receptor. The assay is classed as cell-based. The procedure:
(§1) TR-FRET was measured using a 330-380 nm excitation filter, 615 nm and 665 nm emission filters, dichroic mirror 380 nm and Z=10 mm. cAMP concentrations in each well were back-calculated from a cAMP standard curve run concurrently during each assay. Each plate contained 16 wells of forskolin stimulated cells and 16 wells of forskolin plus 1 μM CP55,940-treated cells. Concentrations of cAMP were expressed as a percent of the difference of these two groups of wells.
Background: Cyclic AMP is a second messenger, typically raised through Gs and lowered through Gi signalling.

The subject of assay [2] is Complete Freund's Adjuvant (CFA) model of inflammatory pain. The experiment in a line: Anti-hyperalgesia in CFA inflammatory pain model (paw withdrawal latency to thermal stimulus). The class given is in vivo, male Sprague-Dawley rats. Conditions: PO dose 3 mg/kg, 1 hr after dosing (24 hr after CFA), rat, read-out: % MPE (1 hr), paw withdrawal latency after CFA injection. The method, then: The anti-hyperalgesic effects of test compounds in the Complete Freund's Adjuvant (CFA) model of inflammatory pain were determined essentially as described in U.S. Pat. No. 7,517,874 using male Sprague-Dawley rats (Hsd: Sprague-Dawley®SD®, Harlan, Indianapolis, Ind.) weighing 200-300 grams.
Test compounds were prepared in a Cremaphor vehicle mixture of 1:1:18 CremophorEL:ethanol:water. Cremophor was obtained from Sigma Chemical (St. Louis, Mo.). Vehicle mixture or vehicle mixture+test compound were each administered p.o.
Assessment of thermal hyperalgesia: Baseline and post-treatment paw withdrawal latencies to a noxious thermal stimulus were measured using a plantar test apparatus (Ugo Basile; obtained from Stoelting, Wood Dale, Ill.). This apparatus generates an infrared heat source that is linearly increasing in intensity. To avoid tissue damage, the power to the heat source was cut off after 20 seconds.
Paw withdrawal latency is defined as the time required for the rat to flick its paw away from the thermal stimulus. Ibuprofen (100 mg/kg, p.o.) was used as the positive control. Paw withdrawal latencies (in seconds) were measured before (naïve paw latency, L1) and 24 hr following (CFA-inflamed paw latency, L2) a single intraplantar injection of 0.1 mL CFA (Sigma-Aldrich, cat F5881, Mycobacterium tuberculosis 1 mg/ml).
Test compounds were administered orally 23 hours following CFA injection; i.e., 1 hour prior to thermal assessment (compound treated CFA-inflamed paw latency, L3). The mean paw withdrawal latency and standard error of the mean (SEM) was determined for the injured paws for each treatment group.
Data were expressed as percent maximum percent effect (% MPE) defined as the percentage of restoration of latency of test compound-treated CFA inflamed paw as compared to the naïve paw latency.

Assay [3] concerns the target human CB1 receptor (hCB1) (Homo sapiens, UniProt P21554). The experiment in a line: cAMP assay, agonist/inverse agonist activity at human CB1 receptor. The class given is cell-based. The note with it: hCB1R, read-out: EC50 at hCB1R (Potency at Human CB1 determined by cAMP Assay). The method, then:
The ability of each of the compounds to act as agonists or inverse agonists at human CB2 and CB 1 receptors (hCB2, hCB 1, respectively) and at the rat CB2 receptor (rCB2) was determined by measuring changes in intracellular cyclic AMP (cAMP) levels as described in U.S. Pat. No. 7,517,874.
as §1, with “wells. Concentration-response data including EC50 (the concentration of compound producing 50% of the maximal response) and intrinsic activity (the percent maximal activation compared to full activation by CP55,940) were determined using a four-parameter non-linear regression algorithm (CambridgeSoft Bioassay).” for “wells.”

Like-named read-outs stand apart in the source and are kept apart here. Where only a bound is given, the exact number is not on record here.

human CB2 receptor (hCB2), sequence (P34972 whole entry): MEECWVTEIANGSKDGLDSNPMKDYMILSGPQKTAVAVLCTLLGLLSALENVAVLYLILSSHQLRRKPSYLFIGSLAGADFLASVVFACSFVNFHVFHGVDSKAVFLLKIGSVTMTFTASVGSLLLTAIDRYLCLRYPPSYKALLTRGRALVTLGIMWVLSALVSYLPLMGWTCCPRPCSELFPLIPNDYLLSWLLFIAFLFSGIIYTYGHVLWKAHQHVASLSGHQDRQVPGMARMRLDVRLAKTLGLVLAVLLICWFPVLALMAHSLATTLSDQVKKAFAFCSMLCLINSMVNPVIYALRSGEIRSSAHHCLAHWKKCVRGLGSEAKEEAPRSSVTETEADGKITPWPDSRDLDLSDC
human CB1 receptor (hCB1), sequence (P21554 whole entry): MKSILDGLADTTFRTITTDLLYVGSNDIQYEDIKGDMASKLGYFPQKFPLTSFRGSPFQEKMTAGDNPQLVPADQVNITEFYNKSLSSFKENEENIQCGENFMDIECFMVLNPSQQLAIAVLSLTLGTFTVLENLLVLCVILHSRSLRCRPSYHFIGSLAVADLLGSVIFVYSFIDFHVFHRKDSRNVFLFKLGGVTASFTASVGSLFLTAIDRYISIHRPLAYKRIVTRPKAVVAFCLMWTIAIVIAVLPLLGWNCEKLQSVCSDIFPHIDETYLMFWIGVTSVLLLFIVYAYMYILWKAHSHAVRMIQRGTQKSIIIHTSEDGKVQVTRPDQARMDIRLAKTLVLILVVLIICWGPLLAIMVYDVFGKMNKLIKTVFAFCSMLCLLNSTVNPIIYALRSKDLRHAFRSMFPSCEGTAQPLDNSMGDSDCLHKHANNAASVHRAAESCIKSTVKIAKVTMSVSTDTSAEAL

As to `CNC(=O)[C@@H](NC(=O)c1nn(-c2ccc(F)c(F)c2)c2c1COCC2)C(C)(C)C` [Compound 114, (S)-1-(3,4-difluorophenyl)-N-(3,3-dimethyl-1-(methylamino)-1-oxobutan-2-yl)-1,4,6,7-tetrahydropyrano[4,3-c]pyrazole-3-carboxamide], the EC50 was below 1000 nM in assay [1] (hCB2R, cAMP assay, read-out: EC50 at hCB2R (Potency at Human CB2 determined by cAMP Assay)) and below 1000 nM in assay [3]. Moreover, the inhibition in vivo at 3 mg/kg in assay [2] stood at 41%.
Regarding `CC(C)(C)[C@H](NC(=O)c1nn(-c2ccc(F)c(F)c2)c2c1COCC2)C(=O)NCCO` [Compound 115, (S)-1-(3,4-difluorophenyl)-N-(1-(2-hydroxyethylamino)-3,3-dimethyl-1-oxobutan-2-yl)-1,4,6,7-tetrahydropyrano[4,3-c]pyrazole-3-carboxamide], the EC50 in assay [1] and in assay [3] was below 1000 nM throughout. In addition, the inhibition in vivo at 3 mg/kg in assay [2] is 35%.
Take `CC(C)(C)[C@H](NC(=O)c1nn(-c2ccc(F)c(F)c2)c2c1CCOC2)C(=O)NCCO` [Compound 116, (S)-1-(3,4-difluorophenyl)-N-(1-(2-hydroxyethylamino)-3,3-dimethyl-1-oxobutan-2-yl)-1,4,5,7-tetrahydropyrano[3,4-c]pyrazole-3-carboxamide]: the EC50 in assay [1] and in assay [3] was below 1000 nM throughout. In addition, the inhibition in vivo at 3 mg/kg in assay [2] amounted to 60%.
